This is an account of results in patent US8557741B2, “3-aminocarbonyl-substituted benzoylcyclohexanediones and their use as herbicides” (Bayer CropScience AG, priority 2010, dated 2013).

Like-named read-outs stand apart in the source and are kept apart here.

Common to all, as to assay type: in vivo
Experiment [1] has as its system Matricaria inodora. As to the kind of experiment: Post-emergence herbicidal action against harmful plants. The settings on record: Tripleurospermum inodorum, 504 h, dosage 80 g/ha, read-out: Herbicidal action against MATIN. From the text:
(§1) The abbreviations used in the tables below denote: • ABUTH Abutilon theophrasti • AMARE Amaranthus retroflexus • ECHCG Echinochloa crus galli • PHBPU Phartoitis purpureum • STEME Stellaria media • ALOMY Alopecurus myosuroides • AVEFA Avena fatua • MATIN Matricaria inodora • POLCO Fallopia convolvulus • VERPE Veronica persica 1. Pre-emergence Herbicidal Action Against Harmful Plants Seeds of monocotyledonous and dicotyledonous weed and crop plants are placed in sandy loam in wood-fibre pots, covered with soil and cultivated in a greenhouse under good growth conditions. 2 to 3 weeks after sowing, the test plants are treated at the one-leaf stage. The compounds according to the invention, formulated in the form of wettable powders (WP) or as emulsion concentrates (EC), are then sprayed as aqueous suspension or emulsion at a water application rate of 600 to 800 I/ha (converted) with the addition of 0.2% of wetting agent onto the green parts of the plants. After the test plants have been kept in the greenhouse under optimum growth conditions for about 3 weeks, the activity of the preparations is rated visually in comparison to untreated controls (herbicidal activity in percent (%): 100% activity=the plants have died, 0% activity=control plants, —=not tested).

Experiment [2] relates to Echinochloa crus galli. Described as above. The settings on record: 504 h, dosage 80 g/ha, visual rating after about 3 weeks (Table D), read-out: Herbicidal action against ECHCG.
Excerpt: as §1

In experiment [3] the test system is Amaranthus retroflexus. The experiment is described as above. The settings on record: 504 h, dosage 80 g/ha, visual rating after about 3 weeks (Table D), read-out: Herbicidal action against AMARE.
Excerpt: as §1

Experiment [4] deals with Abutilon theophrasti. Described as above. Conditions: 504 h, dosage 80 g/ha, read-out: Herbicidal action against ABUTH.
Excerpt: as §1

Experiment [5] deals with Phartoitis purpureum. The description is as above. Conditions: 504 h, dosage 80 g/ha.
Excerpt: as §1

Experiment [6] deals with Veronica persica. The description is as above. The settings on record: 504 h, dosage 80 g/ha, visual rating after about 3 weeks (Table D), read-out: Herbicidal action against VERPE.
Excerpt: as §1

For experiment [7], the system named is Stellaria media. The description is as above. Conditions: 504 h, dosage 80 g/ha, visual rating after about 3 weeks (Table D), read-out: Herbicidal action against STEME.
Excerpt: as §1

The test system of experiment [8] is Matricaria inodora. Description: Pre-emergence herbicidal action against harmful plants. Conditions: Tripleurospermum inodorum, 504 h, dosage 320 g/ha, visual assessment after 3 weeks (Table A), read-out: Herbicidal action against MATIN. From the text: (§2) The abbreviations used in the tables below denote: • ABUTH Abutilon theophrasti • AMARE Amaranthus retroflexus • ECHCG Echinochloa crus galli • PHBPU Phartoitis purpureum • STEME Stellaria media • ALOMY Alopecurus myosuroides • AVEFA Avena fatua • MATIN Matricaria inodora • POLCO Fallopia convolvulus • VERPE Veronica persica 1. Pre-emergence Herbicidal Action Against Harmful Plants Seeds of monocotyledonous and dicotyledonous weed plants and crop plants are placed in wood-fibre pots in sandy loam and covered with soil. The compounds according to the invention and the compounds known from the prior art, formulated in the form of wettable powders (WP) or as emulsion concentrates (EC), are then applied as aqueous suspension or emulsion at a water application rate of 600 to 800 I/ha (converted) with the addition of 0.2% of wetting agent to the surface of the covering soil. After the treatment, the pots are placed in a greenhouse and kept under good growth conditions for the test plants. The visual assessment of the damage to the test plants is carried out after a trial period of 3 weeks by comparison with untreated controls (herbicidal activity in percent (%): 100% activity=the plants have died, 0% activity=like control plants, —=not tested). The results of comparative table A show the compounds according to the invention have a higher herbicidal activity than the compounds of the greatest structural similarity known from the closest prior art.

Experiment [9] concerns Echinochloa crus galli. The experiment is described as above. The settings on record: Echinochloa, 504 h, dosage 320 g/ha, visual assessment after 3 weeks (Table A), read-out: Herbicidal action against ECHCG.
Excerpt: as §2

Experiment [10] relates to Amaranthus retroflexus. Described as above. Conditions: 504 h, dosage 320 g/ha, visual assessment after 3 weeks (Table A), read-out: Herbicidal action against AMARE.
Excerpt: as §2

Experiment [11] concerns Abutilon theophrasti. Described as above. Conditions: Abutilon theophrasti, 504 h, dosage 320 g/ha, visual assessment after 3 weeks (Table A), read-out: Herbicidal action against ABUTH.
Excerpt: as §2

For experiment [12], the system named is Phartoitis purpureum. The description is as above. The settings on record: dosage 320 g/ha, visual assessment after 3 weeks (Table A).
Excerpt: as §2

Experiment [13] has as its system Veronica persica. Described as above. The settings on record: 504 h, dosage 320 g/ha, visual assessment after 3 weeks (Table A), read-out: Herbicidal action against VERPE.
Excerpt: as §2

For experiment [14], the system named is Stellaria media. The description is as above. The settings on record: 504 h, dosage 320 g/ha, visual assessment after 3 weeks (Table A), read-out: Herbicidal action against STEME.
Excerpt: as §2

Another experiment has as its system Fallopia convolvulus. Description: Post-emergence herbicidal action against harmful plants. The settings on record: 504 h, dosage 80 g/ha, read-out: Herbicidal action against POLCO.
Excerpt: as §1

[15] abbreviates: visual rating after about 3 weeks (Table D).
Setting [16] is: visual rating after about 3 weeks (Table D), read-out: Herbicidal action against PHBPU.
The mark [17] stands for this setting: visual rating after about 3 weeks (Table E).
The mark [18] stands for this setting: visual rating after about 3 weeks (Table E), read-out: Herbicidal action against PHPBU.

For the molecule `CCN(CC)C(=O)COc1c(S(C)(=O)=O)ccc(C(=O)C2=C(O)CCCC2=O)c1C(F)(F)F` [Compound E2], the pest or weed control at 80 g/ha is 100% with Matricaria inodora [1] (setting [15]); 90% with Echinochloa crus galli [2]; 100% with Amaranthus retroflexus [3]; 90% with Abutilon theophrasti [4] (setting [15]); 100% with Phartoitis purpureum [5] (setting [16]); 100% in the experiment with Veronica persica [6]. In the experiment on Stellaria media [7], the pest or weed control at 80 g/ha worked out at 100%. For the same molecule, the pest or weed control at 320 g/ha is 100% in the experiment with Matricaria inodora [8]; 100% with Echinochloa crus galli [9]; 100% in the experiment on Amaranthus retroflexus [10]; 100% with Abutilon theophrasti [11]; 100% in the experiment with Veronica persica [13]; 90% in the experiment on Stellaria media [14]. Further, in the experiment with Phartoitis purpureum [12], the “Herbicidal action against PHBPU” value was 80%.

As for `CCN(CC)C(=O)COc1c(S(=O)(=O)CC)ccc(C(=O)C2=C(O)CCCC2=O)c1C(F)(F)F` [Compound E3], the pest or weed control at 80 g/ha was 90% with Matricaria inodora [1] (setting [15]); 100% with Echinochloa crus galli [2]; 90% with Fallopia convolvulus (setting [15]); 100% in the experiment on Amaranthus retroflexus [3]; 100% in the experiment with Abutilon theophrasti [4] (setting [15]); 90% in the experiment with Phartoitis purpureum [5] (setting [16]). Besides, the pest or weed control at 80 g/ha with Veronica persica [6] and in the experiment on Stellaria media [7] was 100% each time. Further, the pest or weed control at 320 g/ha with Matricaria inodora [8], with Echinochloa crus galli [9], with Amaranthus retroflexus [10], with Abutilon theophrasti [11], in the experiment on Veronica persica [13] and in the experiment on Stellaria media [14] was 100% in each case. Moreover, in the experiment on Phartoitis purpureum [12], the “Herbicidal action against PHBPU” value was found to be 90%.

Take `CN(C)C(=O)COc1c(S(C)(=O)=O)ccc(C(=O)C2=C(O)CCCC2=O)c1C(F)(F)F` [Compound E4]: the pest or weed control at 80 g/ha in the experiment on Matricaria inodora [1] (setting [15]) came out at 90%; in the experiment with Fallopia convolvulus (setting [15]), 70%; in the experiment with Amaranthus retroflexus [3] it was 90%; with Abutilon theophrasti [4] (setting [15]), 90%; with Veronica persica [6], 100%; in the experiment with Stellaria media [7], 100%. The pest or weed control at 320 g/ha in the experiment with Matricaria inodora [8] turned out to be 100%; in the experiment with Echinochloa crus galli [9] it was 100%; with Amaranthus retroflexus [10], 100%; in the experiment on Abutilon theophrasti [11], 100%; in the experiment on Veronica persica [13], 100%; in the experiment with Stellaria media [14], 90%.

For `CCN(C)C(=O)COc1c(S(=O)(=O)CC)ccc(C(=O)C2=C(O)CCCC2=O)c1C(F)(F)F` [Compound E6], the pest or weed control at 80 g/ha in the experiment on Matricaria inodora [1] (setting [15]) stood at 100%; with Echinochloa crus galli [2], 100%; in the experiment with Fallopia convolvulus (setting [15]), 90%; in the experiment on Amaranthus retroflexus [3] it was 90%; with Abutilon theophrasti [4] (setting [15]), 100%; in the experiment with Phartoitis purpureum [5] (setting [16]), 100%. In addition, the pest or weed control at 80 g/ha with Veronica persica [6] and with Stellaria media [7] was 100% throughout. For the same molecule, the pest or weed control at 320 g/ha with Matricaria inodora [8], in the experiment with Echinochloa crus galli [9], in the experiment with Amaranthus retroflexus [10], with Abutilon theophrasti [11], in the experiment on Veronica persica [13] and with Stellaria media [14] was 100% throughout.

As to `CCS(=O)(=O)c1ccc(C(=O)C2=C(O)CCCC2=O)c(C(F)(F)F)c1OCC(=O)NC` [Compound E10], the pest or weed control at 80 g/ha in the experiment with Matricaria inodora [1] (setting [17]) is 90%; in the experiment on Fallopia convolvulus (setting [17]), 100%; with Abutilon theophrasti [4] (setting [17]), 100%; in the experiment on Phartoitis purpureum [5] (setting [18]) it was 100%.

For the molecule `CCN(CC)C(=O)COc1c(S(C)(=O)=O)ccc(C(=O)C2=C(O)CCCC2=O)c1Cl` [Compound S2, reference compound], the pest or weed control at 80 g/ha in the experiment with Matricaria inodora [1] (setting [15]) was 70%; in the experiment with Echinochloa crus galli [2], 30%; with Amaranthus retroflexus [3], 90%; in the experiment on Abutilon theophrasti [4] (setting [15]), 80%; with Phartoitis purpureum [5] (setting [16]), 90%; in the experiment with Veronica persica [6], 90%. Also, in the experiment with Stellaria media [7], the pest or weed control at 80 g/ha worked out at 90%. In addition, the pest or weed control at 320 g/ha in the experiment with Matricaria inodora [8] is 60%; in the experiment with Echinochloa crus galli [9], 70%; in the experiment with Amaranthus retroflexus [10], 100%; in the experiment on Abutilon theophrasti [11], 40%; in the experiment with Veronica persica [13], 100%; in the experiment with Stellaria media [14] it was 20%. In the experiment with Phartoitis purpureum [12], the “Herbicidal action against PHBPU” value was 70%.

On to `CN(C)C(=O)COc1c(S(C)(=O)=O)ccc(C(=O)C2=C(O)CCCC2=O)c1Cl` [Compound S4, reference compound], for which the pest or weed control at 80 g/ha in the experiment on Matricaria inodora [1] (setting [15]) is 70%; in the experiment with Fallopia convolvulus (setting [15]), 0%; in the experiment with Amaranthus retroflexus [3], 60%; in the experiment on Abutilon theophrasti [4] (setting [15]), 70%; with Veronica persica [6], 90%; with Stellaria media [7], 90%. For the same molecule, the pest or weed control at 320 g/ha with Matricaria inodora [8] came out at 80%; with Echinochloa crus galli [9], 40%; in the experiment with Amaranthus retroflexus [10], 100%; with Abutilon theophrasti [11] it was 50%; in the experiment on Veronica persica [13], 100%; with Stellaria media [14] it was 90%.

Consider `CCN(C)C(=O)COc1c(S(=O)(=O)CC)ccc(C(=O)C2=C(O)CCCC2=O)c1Cl` [Compound S6, reference compound], for which the pest or weed control at 80 g/ha came out at 80% with Matricaria inodora [1] (setting [15]); 20% in the experiment with Echinochloa crus galli [2]; 0% in the experiment with Fallopia convolvulus (setting [15]); 80% in the experiment on Amaranthus retroflexus [3]; 90% in the experiment on Abutilon theophrasti [4] (setting [15]); 80% in the experiment on Phartoitis purpureum [5] (setting [16]). For the same molecule, the pest or weed control at 80 g/ha with Veronica persica [6] worked out at 100%; in the experiment with Stellaria media [7], 90%. The pest or weed control at 320 g/ha was 80% with Matricaria inodora [8]; 90% with Echinochloa crus galli [9]; 100% in the experiment with Amaranthus retroflexus [10]; 100% in the experiment on Abutilon theophrasti [11]; 90% in the experiment with Veronica persica [13]; 80% with Stellaria media [14].

Turning to `CCS(=O)(=O)c1ccc(C(=O)C2=C(O)CCCC2=O)c(Cl)c1OCC(=O)NC` [Compound S10, reference compound], the pest or weed control at 80 g/ha in the experiment on Matricaria inodora [1] (setting [17]) is 70%; in the experiment with Fallopia convolvulus (setting [17]) it was 80%; in the experiment on Abutilon theophrasti [4] (setting [17]), 90%; with Phartoitis purpureum [5] (setting [18]) it was 90%.
